Assay results as given in US20230048576A1, “COMPOUNDS FOR THE TREATMENT OF NEUROPATHIC PAIN” (City of Hope, priority 2019, published 2023).

Assay: Mean group body weight in Taxol model
Type: in vivo, rat
Experimental: Neuropathic pain was induced by intraperitoneal administration of Taxol at a dose level of 6 mg/kg on study days 0-6 and 12 mg/kg on study days 7-12. Following injection of Taxol animals experienced pain as was assessed using the von Frey test. The development of neuropathic pain was confirmed by measuring mechanical allodynia (Von Frey test) on study day 13 (for inclusion) and on study day 14 (1 hour and 2 hour post dosing) and 24 hour post first dosing.

[1] = 100 mg/kg PO, Group 4, Baseline

CC(C)(Oc1ccc(NC(=O)Nc2ccc(Cc3ccc(NC(=O)Nc4ccc(OC(C)(C)C(=O)O)cc4)c(Cl)c3)cc2Cl)cc1)C(=O)O [LR-90, methylene bis[4,4′-(2-chlorophenylureidophenoxyisobutyric acid)]]
Mean group body weight (25 mg/kg PO, Group 6, Day 16): 277.50 g
Mean group body weight (% from baseline) (25 mg/kg PO, Group 6, Day 16): 124.11%
Mean group body weight (25 mg/kg PO, Group 6, Day 20): 277.63 g
Mean group body weight (% from baseline) (25 mg/kg PO, Group 6, Day 20): 124.18%
Mean group body weight (25 mg/kg PO, Group 6, Day 23): 263.63 g
Mean group body weight (% from baseline) (25 mg/kg PO, Group 6, Day 23): 117.84%
Mean group body weight (25 mg/kg PO, Group 6, Day 26): 239.00 g
Mean group body weight (% from baseline) (25 mg/kg PO, Group 6, Day 26): 108.59%
Mean group body weight (50 mg/kg PO, Group 5, Baseline): 225.88 g
Mean group body weight (% from baseline) (50 mg/kg PO, Group 5, Baseline): 100.00%
Mean group body weight (50 mg/kg PO, Group 5, Day 1): 234.38 g
Mean group body weight (% from baseline) (50 mg/kg PO, Group 5, Day 1): 103.80%
Mean group body weight (50 mg/kg PO, Group 5, Day 3): 241.63 g
Mean group body weight (% from baseline) (50 mg/kg PO, Group 5, Day 3): 106.95%
Mean group body weight (50 mg/kg PO, Group 5, Day 5): 257.50 g
Mean group body weight (% from baseline) (50 mg/kg PO, Group 5, Day 5): 113.97%
Mean group body weight (50 mg/kg PO, Group 5, Day 7): 268.63 g
Mean group body weight (% from baseline) (50 mg/kg PO, Group 5, Day 7): 118.88%
Mean group body weight (50 mg/kg PO, Group 5, Day 9): 278.38 g
Mean group body weight (% from baseline) (50 mg/kg PO, Group 5, Day 9): 123.18%
Mean group body weight (50 mg/kg PO, Group 5, Day 11): 286.13 g
Mean group body weight (% from baseline) (50 mg/kg PO, Group 5, Day 11): 126.60%
Mean group body weight (50 mg/kg PO, Group 5, Day 13): 291.38 g
Mean group body weight (% from baseline) (50 mg/kg PO, Group 5, Day 13): 128.91%
Mean group body weight (50 mg/kg PO, Group 5, Day 16): 280.13 g
Mean group body weight (% from baseline) (50 mg/kg PO, Group 5, Day 16): 123.98%
Mean group body weight (50 mg/kg PO, Group 5, Day 20): 273.75 g
Mean group body weight (% from baseline) (50 mg/kg PO, Group 5, Day 20): 121.18%
Mean group body weight (50 mg/kg PO, Group 5, Day 23): 264.29 g
Mean group body weight (% from baseline) (50 mg/kg PO, Group 5, Day 23): 116.09%
Mean group body weight (50 mg/kg PO, Group 5, Day 26): 266.67 g
Mean group body weight (% from baseline) (50 mg/kg PO, Group 5, Day 26): 117.29%
Mean group body weight [1]: 222.63 g
Mean group body weight (% from baseline) [1]: 100.00%
Mean group body weight (100 mg/kg PO, Group 4, Day 1): 235.50 g
Mean group body weight (% from baseline) (100 mg/kg PO, Group 4, Day 1): 105.77%
Mean group body weight (100 mg/kg PO, Group 4, Day 3): 237.63 g
Mean group body weight (% from baseline) (100 mg/kg PO, Group 4, Day 3): 106.74%
Mean group body weight (100 mg/kg PO, Group 4, Day 5): 257.25 g
Mean group body weight (% from baseline) (100 mg/kg PO, Group 4, Day 5): 115.56%
Mean group body weight (100 mg/kg PO, Group 4, Day 7): 267.25 g
Mean group body weight (% from baseline) (100 mg/kg PO, Group 4, Day 7): 120.04%
Mean group body weight (100 mg/kg PO, Group 4, Day 9): 276.50 g
Mean group body weight (% from baseline) (100 mg/kg PO, Group 4, Day 9): 124.20%
Mean group body weight (100 mg/kg PO, Group 4, Day 11): 285.00 g
Mean group body weight (% from baseline) (100 mg/kg PO, Group 4, Day 11): 128.01%
Mean group body weight (100 mg/kg PO, Group 4, Day 13): 288.75 g
Mean group body weight (% from baseline) (100 mg/kg PO, Group 4, Day 13): 129.71%
Mean group body weight (100 mg/kg PO, Group 4, Day 16): 284.75 g
Mean group body weight (% from baseline) (100 mg/kg PO, Group 4, Day 16): 127.91%
Mean group body weight (100 mg/kg PO, Group 4, Day 20): 266.63 g
Mean group body weight (% from baseline) (100 mg/kg PO, Group 4, Day 20): 119.75%
Mean group body weight (100 mg/kg PO, Group 4, Day 23): 249.00 g
Mean group body weight (% from baseline) (100 mg/kg PO, Group 4, Day 23): 111.34%
Mean group body weight (100 mg/kg PO, Group 4, Day 26): 234.00 g
Mean group body weight (% from baseline) (100 mg/kg PO, Group 4, Day 26): 106.04%
